Values after ≈ are worked out from the molar mass of the structure shown.

The subject of assay [1] is MDA-MB-231. Put plainly: cells. Conditions: Homo sapiens, MDA-MB-231, 24 h.
Description: Cytotoxicity in human MDA-MB-231 cells assessed as reduction in cell viability incubated for 24 hrs by MTT assay
Assay [2] concerns A549. Put plainly: Cytotoxicity in human A549 cells assessed a reduction in cell viability incubated for 48 hrs by MTT assay. Type of assay: functional, cell-based. Conditions: A549, 48 h. Background: Tetrazolium dyes change colour on reduction, which living cells bring about.
In assay [3] the test system is A549. Put plainly: Cytotoxicity in human A549 cells assessed as reduction in cell viability incubated for 48 hrs by MTT assay. Type of assay: functional, cell-based. The note with it: A549, 48 h.
The test system of the next assay is U-87 MG. Put plainly: Cytotoxicity in human U87MG cells assessed as reduction in cell viability incubated for 48 hrs by MTT assay. Type of assay: functional, cell-based, U-87MG ATCC.
The next assay deals with PC-3. Put plainly: Cytotoxicity in human PC3 cells assessed as reduction in cell viability incubated for 48 hrs by MTT assay. Conditions: PC-3, 48 h. It is filed as functional, cell-based.
The test system of assay [4] is HT-29. Put plainly: Cytotoxicity in human HT-29 cells assessed as reduction in cell viability incubated for 48 hrs by MTT assay. It is filed as functional, cell-based. The note with it: HT-29, 48 h.
The test system of another assay is HUVEC. Put plainly: Inhibition of VEGF-induced cell migration of HUVEC assessed as wound closure level at cytotoxic IC50 incubated for 24 hrs (reference value: 100%). Type of assay: functional, Homo sapiens. Details: scale not given: the % may be the effect or the level left.
The target in assay [5] is Vascular endothelial growth factor receptor 1 (Homo sapiens, UniProt P17948). Kind of assay: Inhibition of VEGFR1 (unknown origin) using KKKSPGEYVNIEFG substrate and [33P-g-ATP] incubated for 30 mins.
The next assay has as its system HL-60. Kind of assay: Anticancer activity against human HL60 cells assessed as reduction in cell viability incubated for 48 hrs by MTT assay. Conditions: HL-60, 48 h. Type of assay: functional, cell-based.
In assay [6] the test system is MCF7. Put plainly: Anticancer activity against human MCF7 cells assessed as reduction in cell viability incubated for 48 hrs by MTT assay. Type of assay: functional, cell-based. Conditions: MCF7, 48 h.
In assay [7] the test system is A549. Put plainly: Antiproliferative activity against human A549 cells incubated for 48 hrs by MTT assay. It is filed as functional, cell-based. Conditions: A549, 48 h.
Assay [8] concerns MCF7. Kind of assay: Antiproliferative activity against human MCF7 cells incubated for 48 hrs by MTT assay. Conditions: MCF7, 48 h. Type of assay: functional, cell-based.
A further assay deals with HCT-116. Put plainly: Antiproliferative activity against human HCT116 cells incubated for 48 hrs by MTT assay. Conditions: HCT-116, 48 h. Type of assay: functional, cell-based.
Another assay deals with HeLa. Kind of assay: Antiproliferative activity against human HeLa cells incubated for 48 hrs by MTT assay. Type of assay: functional, cell-based.
Another assay relates to HEK293. Put plainly: Antiproliferative activity against HEK293 cells incubated for 48 hrs by MTT assay. The note with it: Homo sapiens, HEK293, 48 h. It is filed as cell-based.
Assay [9] concerns HT-29. Kind of assay: Antiproliferative activity against human HT-29 cells incubated for 48 hrs by MTT assay. It is filed as functional, cell-based. The note with it: HT-29, 48 h.
Another assay concerns DU-145. Kind of assay: Antiproliferative activity against human DU145 cells incubated for 48 hrs by MTT assay. It is filed as functional, cell-based. Conditions: DU-145, 48 h.
The target of the next assay is Tyrosinase (Agaricus bisporus, UniProt O42713). Put plainly: Inhibition of diphenolase activity of mushroom tyrosinase pre-incubated for 30 mins before L-DOPA substrate addition and measured after 1 min by spectrophotometric assay.
Assay [10] has as its system Panel NCI-60 (60 carcinoma cell lines). Put plainly: Growth inhibition of human NCI60 cells incubated for 48 hrs by SRB assay. Type of assay: functional.
Another assay deals with A498. Put plainly: Growth inhibition of human A498 cells at 10 uM. It is filed as functional. The note with it: read-out: GI.
Assay [11] relates to MDA-MB-231. Kind of assay: Growth inhibition of human MDA-MB-231 cells at 10 uM. It is filed as functional. The note with it: read-out: GI.
The subject of the next assay is KB. Kind of assay: Cytotoxicity in human KB cells assessed as reduction in cell viability. Type of assay: functional, cell-based.

Vascular endothelial growth factor receptor 1, sequence (P17948 whole entry): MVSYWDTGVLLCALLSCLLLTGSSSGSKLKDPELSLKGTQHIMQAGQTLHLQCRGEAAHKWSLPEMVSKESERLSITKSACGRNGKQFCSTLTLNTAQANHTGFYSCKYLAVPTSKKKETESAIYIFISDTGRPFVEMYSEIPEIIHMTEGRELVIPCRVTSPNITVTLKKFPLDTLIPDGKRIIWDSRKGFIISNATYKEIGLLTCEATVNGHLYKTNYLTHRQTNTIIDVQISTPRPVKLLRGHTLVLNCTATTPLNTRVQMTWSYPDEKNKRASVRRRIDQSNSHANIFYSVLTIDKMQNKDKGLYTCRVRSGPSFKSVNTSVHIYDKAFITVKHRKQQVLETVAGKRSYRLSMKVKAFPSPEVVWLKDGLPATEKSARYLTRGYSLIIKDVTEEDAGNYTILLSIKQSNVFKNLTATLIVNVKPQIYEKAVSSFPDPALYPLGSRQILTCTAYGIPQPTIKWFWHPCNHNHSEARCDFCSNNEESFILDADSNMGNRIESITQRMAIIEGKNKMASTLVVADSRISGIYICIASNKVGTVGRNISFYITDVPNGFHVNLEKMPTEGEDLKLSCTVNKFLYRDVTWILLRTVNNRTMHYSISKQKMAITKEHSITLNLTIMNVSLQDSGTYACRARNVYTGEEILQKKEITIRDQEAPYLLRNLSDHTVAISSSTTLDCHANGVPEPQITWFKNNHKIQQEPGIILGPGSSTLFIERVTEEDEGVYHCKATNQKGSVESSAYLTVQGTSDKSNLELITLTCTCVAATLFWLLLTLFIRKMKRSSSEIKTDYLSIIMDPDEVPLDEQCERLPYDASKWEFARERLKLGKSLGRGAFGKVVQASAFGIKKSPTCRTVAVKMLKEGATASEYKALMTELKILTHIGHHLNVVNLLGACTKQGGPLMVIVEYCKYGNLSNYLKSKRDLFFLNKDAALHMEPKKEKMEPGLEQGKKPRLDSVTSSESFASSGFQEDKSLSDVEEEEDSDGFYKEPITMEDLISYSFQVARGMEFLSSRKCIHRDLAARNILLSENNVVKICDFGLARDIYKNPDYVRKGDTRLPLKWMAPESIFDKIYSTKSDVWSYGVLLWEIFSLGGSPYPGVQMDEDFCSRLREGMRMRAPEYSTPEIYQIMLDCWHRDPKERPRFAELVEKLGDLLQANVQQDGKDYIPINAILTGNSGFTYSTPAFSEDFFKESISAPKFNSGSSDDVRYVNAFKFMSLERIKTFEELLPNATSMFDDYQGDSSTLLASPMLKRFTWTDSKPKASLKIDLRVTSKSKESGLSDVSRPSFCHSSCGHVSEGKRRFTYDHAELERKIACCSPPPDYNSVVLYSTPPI
Tyrosinase, sequence (O42713 whole entry): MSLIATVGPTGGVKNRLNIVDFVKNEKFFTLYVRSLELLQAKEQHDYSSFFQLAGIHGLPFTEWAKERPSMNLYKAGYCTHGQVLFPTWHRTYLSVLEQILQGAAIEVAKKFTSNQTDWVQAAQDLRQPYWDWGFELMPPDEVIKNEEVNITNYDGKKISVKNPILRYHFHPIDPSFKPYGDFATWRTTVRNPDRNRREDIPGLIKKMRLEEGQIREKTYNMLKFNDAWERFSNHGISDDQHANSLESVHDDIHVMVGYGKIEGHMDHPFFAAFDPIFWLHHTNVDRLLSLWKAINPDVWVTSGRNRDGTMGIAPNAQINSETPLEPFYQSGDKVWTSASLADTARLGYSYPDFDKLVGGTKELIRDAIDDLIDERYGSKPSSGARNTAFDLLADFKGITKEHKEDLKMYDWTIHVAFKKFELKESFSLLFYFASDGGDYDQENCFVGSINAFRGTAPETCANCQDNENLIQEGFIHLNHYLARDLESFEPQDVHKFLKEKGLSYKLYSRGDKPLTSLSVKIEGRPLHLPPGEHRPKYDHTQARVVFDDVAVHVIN

Regarding `CCCC(CC)NC(=O)c1c(C)[nH]c(/C=C2\C(=O)Nc3nc(C)c(O)c(C)c32)c1C` (stereo not given), in the assay on MDA-MB-231 [1], the IC50 amounted to 3.21 µM.

For the molecule `COc1cc(-c2nc(/C=C/C(=O)c3ccc(F)cc3)cc3c2[nH]c2ccccc23)ccc1F`, in the assay with A549 [2], the 50% inhibitory concentration (IC50) is less than 10 µM.

As for `COc1ccc(Cn2cc(C(=O)c3cn(-c4ccccc4)nc3-c3ccc(F)cc3)nn2)cc1OC`, the IC50 in the assay with A549 [3] was 2130 nM; in the assay with U-87 MG, 3760 nM; with PC-3 it was 5.87 µM; in the assay on HT-29 [4] it was 2540 nM.

Take `O=C(Nc1ccc(F)cc1)c1sccc1Nc1cccc2c1OCCO2`: the Activity in the assay on HUVEC amounted to 20%. In assay [5], this molecule gave an IC50 of 1900 nM.

As for `O=C(c1ccccc1)c1ccc2[nH]c(-c3c4ccccc4cc4ccccc34)nc2c1`, the IC50 in the assay with HL-60 was 15.2 µM; in the assay on MCF7 [6] it was 16.2 µM.

For the molecule `COc1ccc(-c2nn(-c3ccccc3)cc2C(=O)c2cn(Cc3ccc(OC)c(OC)c3)nn2)cc1`, the IC50 in the assay on A549 [3] was 2240 nM; with U-87 MG it was 970 nM; in the assay with PC-3 it was 3.52 µM; in the assay with HT-29 [4], 1780 nM.

`O=C(/C=C/c1cc2c([nH]c3ccccc32)c(-c2ccc(F)cc2)n1)c1ccc([N+](=O)[O-])cc1` registered an IC50 in the assay on A549 [2] of less than 10 µM.

Consider `COc1ccc(Nc2ncccc2C(=O)/C=C/Nc2ccc3[nH]ccc3c2)cc1`, for which the IC50 in the assay with A549 [7] is 0.51 to 1.29 µM; in the assay on MCF7 [8], 510 to 1290 nM; in the assay with HCT-116, 510 to 1290 nM; with HeLa it was 510 to 1290 nM.

For `COc1ccc(-c2nc(/C=C/C(=O)c3cc(OC)c(OC)c(OC)c3)cc3c2[nH]c2ccccc23)cc1OC`, the IC50 with A549 [2] is less than 10 µM.

Regarding `COc1cc(-c2nc(/C=C/C(=O)c3ccc(N)cc3)cc3c2[nH]c2ccccc23)ccc1F`, the IC50 in the assay with A549 [2] was less than 10 µM.

Consider `COc1ccc(Cn2cc(C(=O)c3cccnc3Nc3ccc(F)cc3)nn2)cc1OC`, for which the half-inhibitory concentration (IC50) in the assay with HEK293 came out at 64.3 µM; in the assay with A549 [7], 4.1 µM; with HT-29 [9] it was 3.7 µM; in the assay with DU-145 it was 3.1 µM.

Regarding `CN(C)c1ccc(C2CC(c3cc4ccccc4o3)=NN2C(=O)Nc2ccc(Cl)cc2)c2ccccc12` (stereo not given), on Tyrosinase, inhibition was half-maximal at 4.72 µM (IC50).

On to `COc1ccc(-c2nc(/C=C/C(=O)c3ccc(F)cc3)cc3c2[nH]c2ccccc23)cc1OC`, for which the IC50 in the assay with A549 [2] was less than 10 µM.

As to `CC(=O)N1N=C(c2ccc[nH]2)CC1c1cn(-c2ccccc2)nc1-c1cc2ccccc2o1` (stereo not given), the GI50 in [10] was 1000 to 2710 nM.

Turning to `COc1cc(-c2nc(/C=C/C(=O)c3ccc(F)cc3)cc3c2[nH]c2ccccc23)cc(OC)c1OC`, in the assay with A549 [2], the IC50 was less than 10 µM.

On to `COc1cc(Cn2cc(C(=O)c3cccnc3Nc3ccc(F)cc3)nn2)cc(OC)c1`, for which the IC50 in the assay with HEK293 was found to be 75.2 µM; in the assay on A549 [7] it was 3.9 µM; with HT-29 [9], 3.1 µM; with DU-145 it was 3 µM.

The molecule `COc1ccc(-c2nc(/C=C/C(=O)c3ccc(N)cc3)cc3c2[nH]c2ccccc23)cc1OC` yielded an IC50 in the assay with A549 [2] of less than 10 µM.

Consider `COc1cc(-c2nc(/C=C/C(=O)c3ccc(O)cc3)cc3c2[nH]c2ccccc23)cc(OC)c1OC`, for which the IC50 in the assay on A549 [2] is less than 10 µM.

As to `Cc1cc(=O)oc2cc(Oc3nc(-c4ccccc4)cn4c(-c5ccccc5)cnc34)ccc12`, the values for the inhibition of growth at 10 µM in the assay with A498 and in the assay on MDA-MB-231 [11] were 90% and 93%, respectively.

For `COc1ccc(C(=O)/C=C/c2cc3c([nH]c4ccccc43)c(-c3cc(OC)c(OC)c(OC)c3)n2)cc1`, in the assay with A549 [2], the IC50 is less than 10 µM.

In the assay with A549 [2], `O=C(/C=C/c1cc2c([nH]c3ccccc32)c(-c2ccc(F)cc2)n1)c1ccc(F)cc1` displayed an IC50 of less than 10 µM.

Consider `CC[C@]1(O)C[C@H]2CN(CCc3c([nH]c4ccccc34)[C@@](C(=O)OC)(c3cc4c(cc3OC)N(C=O)[C@H]3[C@@](O)(C(=O)OC)[C@H](OC(C)=O)[C@]5(CC)C=CCN6CC[C@]43[C@@H]65)C2)C1` [VINCRISTINE], for which, in the assay with KB, the IC50 was found to be 0.46 µg/mL (≈ 0.558 µM).

As a reminder, the IC50 is the concentration that inhibits the measured activity by half. What is called GI50 is the concentration that inhibits growth by half.

The values above are taken from ChEMBL document CHEMBL4270497, “Recent advances (2015-2016) in anticancer hybrids” (Eur J Med Chem, 2017).
